The text below walks through data of article PMC8592230 (Food Chemistry, 2021).

The target of assay [1] is T1, SARS-CoV-2 3CL^pro (Severe acute respiratory syndrome coronavirus 2, UniProt P0DTD1). In words: FRET dose-response 3CL^pro inhibition assay. It counts as biochemical.
Assay [2] has as its target T1, SARS-CoV-2 3CL^pro. In words: Surface plasmon resonance binding to immobilised 3CL^pro. A general note: Surface plasmon resonance follows binding to a sensor surface in real time, without labels.
The target in assay [3] is T1, SARS-CoV-2 3CL^pro. In words: Initial FRET screening for 3CL^pro inhibition at 10 µM polyphenol. It counts as biochemical. To be noted: 0.1 µM 3CL^pro, 16 µM FRET substrate, after 10 min.

What is called IC50 is the concentration that inhibits the measured activity by half. Broadly, the Kd is the equilibrium constant for the complex coming apart. A low value points to higher affinity.

On SARS-CoV-2 3CL^pro [1], `Oc1ccc(/C=C/c2cc(O)cc(O)c2)cc1` [Resveratrol] registered an IC50 of 16.9 µM. In addition, the “SPR binding to immobilised 3CL^pro (in words)” value at SARS-CoV-2 3CL^pro [2] (SPR, up to 200 µM polyphenol, 25 °C) is on record as “non-specific binding”.

With `O=c1oc2c(O)c(O)cc3c(=O)oc4c(O)c(O)cc1c4c23` [Ellagic acid], on SARS-CoV-2 3CL^pro [1], the IC50 came to 11.8 µM. Besides, the affinity on SARS-CoV-2 3CL^pro [2], expressed as Kd, was 311 ± 69 µM.

Consider `COc1cc(C(=O)O)cc(OC)c1O` [Syringic acid], for which the “inhibition of 3CL^pro” value against SARS-CoV-2 3CL^pro [3] is “no inhibition at all”.
